What was measured:
[1] = target: GST-tagged Tnks-2 (873-1166 aa) (Homo sapiens, UniProt Q9H2K2); test: biochemical
Experimental: (§1) Description of the TNKS1 and TNKS2 ELISA Assay
(§2) Then the activity assay with biotinylated NAD is performed in the absence/presence of the compounds. During the enzymatic reaction GST tagged TNKS transfers biotinylated ADP-ribose to itself from biotinylated NAD as co-substrate. For the detection streptavidin-HRP conjugate is added that binds to the biotinylated TNKS and is thereby captured to the plates. The amount of biotinylated resp. autoparsylated TNKS is detected with a luminescence substrate for HRP. The level of the luminescence signal correlates directly with the amount of autoparsylated TNKS and therefore with activity of TNKS.
(§3) The activity ELISA is performed in 384 well Glutathione coated microtiter plates (Express capture Glutathione coated plate, Biocat, Heidelberg, Germany). The plates are pre-equilibrated with PBS. […] The plates are washed 3 times with PBS-Tween-20. The wells are blocked by incubation at room temperature for 20 minutes with 50 μl blocking buffer (PBS, 0.05% Tween-20, 0.5% BSA). Afterwards the plates are washed 3 times with PBS-Tween-20. […] The reaction is stopped by 3 times washing with PBS-Tween-20. For the detection 50 μl of 20 ng/μl Streptavidin, HRP conjugate (MoBiTec, Gottingen, Germany) in PBS/0.05% Tween-20/0.01% BSA are added and the plates are incubated for 30 minutes at room temperature. After three times washing with PBS-Tween-20 50 μl of SuperSignal ELISA Femto Maximum sensitivity substrate solution (ThermoFisherScientific (Pierce), Bonn, Germany) are added. Following a 1 minute incubation at room temperature luminescence signals are measured with an Envision multimode reader (Perkin Elmer LAS Germany GmbH) at 700 nm. The full value used is the inhibitor-free reaction. […] The inhibitory values (IC50) are determined using either the program Symyx Assay Explorer® or Condosseo® from GeneData.

tankyrase 1/2 = test: Cellular inhibition of tankyrase: increase of Axin2 level in DLD1 cells (Luminex); format: cell-based; conditions: read-out: EC50 tankyrase 1/2 (cell assay), 24 hours
Experimental: Measurement of Cellular Inhibition of Tankyrase
Cells of the colon carcinoma cell line DLD1 are plated in 96 well plates with 1.5×10^4 cells per well. Next day, cells are treated with a serial dilution of test compound in seven steps as triplicates with a final DMSO concentration of 0.3%. After 24 hours, cells are lysed in lysis buffer (20 mM Tris/HCl pH 8.0, 150 mM NaCl, 1% NP40, 10% Glycerol) and lysates are cleared by centrifugation through a 96 well filter plate (0.65 μm). […] The amount of isolated Axin2 protein is determined in a Luminex^200 machine (Luminex Corporation) according to the manufacturer's instruction by counting 100 events per well. […] For analysis, the obtained data are normalized against the untreated solvent control and fitted for determination of the EC50 values using the Assay Explorer software (Accelrys).

His-tagged Parp-1 = target: T1, His-tagged Parp-1 (Homo sapiens, UniProt P09874); test: PARP-1 autoparsylation assay (HTRF); format: biochemical
T1 construct: purchased Enzo Life Sciences GmbH, Lörrach, Germany
T1 sequence (P09874 whole entry): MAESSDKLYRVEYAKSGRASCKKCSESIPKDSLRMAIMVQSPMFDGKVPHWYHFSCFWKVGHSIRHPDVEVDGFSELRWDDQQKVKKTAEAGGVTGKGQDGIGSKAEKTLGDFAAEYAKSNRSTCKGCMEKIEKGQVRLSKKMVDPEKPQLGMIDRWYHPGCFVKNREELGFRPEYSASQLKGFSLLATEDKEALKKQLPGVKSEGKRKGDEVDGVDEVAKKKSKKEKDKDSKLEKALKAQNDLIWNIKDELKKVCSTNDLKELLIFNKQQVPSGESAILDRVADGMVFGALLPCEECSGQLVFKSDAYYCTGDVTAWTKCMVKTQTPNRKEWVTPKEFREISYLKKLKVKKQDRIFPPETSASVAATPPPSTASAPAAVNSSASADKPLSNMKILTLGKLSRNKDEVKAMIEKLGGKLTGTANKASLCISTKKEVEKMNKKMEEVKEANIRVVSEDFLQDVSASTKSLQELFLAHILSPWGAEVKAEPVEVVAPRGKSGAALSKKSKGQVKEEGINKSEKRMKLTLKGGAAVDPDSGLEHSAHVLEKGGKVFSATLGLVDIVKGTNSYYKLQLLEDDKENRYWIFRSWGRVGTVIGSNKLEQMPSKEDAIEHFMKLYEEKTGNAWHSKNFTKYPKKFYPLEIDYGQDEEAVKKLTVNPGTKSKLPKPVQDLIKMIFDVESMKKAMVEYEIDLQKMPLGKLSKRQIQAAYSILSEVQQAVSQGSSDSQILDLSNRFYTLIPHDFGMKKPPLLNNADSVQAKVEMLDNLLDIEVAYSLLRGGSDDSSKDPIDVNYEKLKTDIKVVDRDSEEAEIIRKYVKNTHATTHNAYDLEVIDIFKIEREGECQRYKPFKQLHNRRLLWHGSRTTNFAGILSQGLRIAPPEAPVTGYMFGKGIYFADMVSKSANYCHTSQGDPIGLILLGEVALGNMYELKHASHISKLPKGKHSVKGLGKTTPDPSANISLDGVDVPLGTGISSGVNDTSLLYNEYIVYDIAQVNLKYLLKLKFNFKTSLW
Text: Description of the PARP1 Assay
Biochemical Activity Testing of PARP-1: Autoparsylation Assay
The autoparsylation assay is run in two steps: the enzymatic reaction in which His-tagged Parp-1 transfers biotinylated ADP-ribose/ADP-ribose to itself from biotinylated NAD/NAD as co-substrate and the detection reaction where a time resolved FRET between cryptate labelled anti-His antibody bound to the His tag of the enzyme and Xlent® labelled-streptavidin bound the biotin-parsylation residue is analysed. The autoparsylation activity is detectable directly via the increase in HTRF signal.
The autoparsylation assay is performed as 384-well HTRF® (Cisbio, Codolet, France) assay format in Greiner low volume nb 384-well microtiter plates. 35 nM His-tagged Parp-1 (human, recombinant, Enzo Life Sciences GmbH, Lörrach, Germany) and a mixture of 125 nM bio-NAD (Biolog, Life science Inst., Bremen, Germany) and 800 nM NAD as co-substrate are incubated in a total volume of 6 μl (100 mM Tris/HCl, 4 mM Mg-chloride, 0.01% IGEPAL® CA630, 1 mM DTT, 0.5% DMSO, pH 8, 13 ng/μl activated DNA (BPS Bioscience, San Diego, US)) in the absence or presence of the test compound (10 dilution concentrations) for 150 min at 23° C. The reaction is stopped by the addition of 4 μl of the Stop/detection solution (70 nM SA-Xlent® (Cisbio, Codolet, France), 2.5 nM Anti-His-K® (Eu-labelled anti-His, Cisbio, Codolet, France) in 50 mM HEPES, 400 mM KF, 0.1% BSA, 20 mM EDTA, pH 7.0). After 1 h incubation at room temperature the HTRF iss measured with an Envision multimode reader (Perkin Elmer LAS Germany GmbH) at excitation wavelength 340 nm (laser mode) and emission wavelengths 615 nm and 665 nm. The ratio of the emission signals is determined. The full value used is the inhibitor-free reaction. The pharmacological zero value used is Olaparib (LClabs, Woburn, US) in a final concentration of 1 The inhibitory values (IC50) are determined using either the program Symyx Assay Explorer® or Condosseo® from GeneData.

[2] = target: T2, GST-tagged Tnks-1 (1023-1327 aa) (Homo sapiens, UniProt O95271); test: TNKS1 activity ELISA (autoparsylation assay); format: biochemical; conditions: read-out: IC50 TNKS1 ELISA
T2 construct: GST-tagged Tnks-1 (1023-1327 aa, prepared in-house); made in house
T2 sequence (O95271 1023-1327): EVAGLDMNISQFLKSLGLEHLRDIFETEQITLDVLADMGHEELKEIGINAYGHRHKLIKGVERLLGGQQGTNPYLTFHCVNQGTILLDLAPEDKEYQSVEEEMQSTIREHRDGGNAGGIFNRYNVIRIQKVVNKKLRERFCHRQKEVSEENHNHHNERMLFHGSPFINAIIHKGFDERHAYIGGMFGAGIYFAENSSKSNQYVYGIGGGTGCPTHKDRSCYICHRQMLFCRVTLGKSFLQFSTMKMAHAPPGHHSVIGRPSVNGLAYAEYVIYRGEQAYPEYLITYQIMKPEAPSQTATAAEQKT
Experimental: as §1, §2, §3

Chain of GST-tagged Tnks-2 (873-1166 aa) (Q9H2K2 873-1166): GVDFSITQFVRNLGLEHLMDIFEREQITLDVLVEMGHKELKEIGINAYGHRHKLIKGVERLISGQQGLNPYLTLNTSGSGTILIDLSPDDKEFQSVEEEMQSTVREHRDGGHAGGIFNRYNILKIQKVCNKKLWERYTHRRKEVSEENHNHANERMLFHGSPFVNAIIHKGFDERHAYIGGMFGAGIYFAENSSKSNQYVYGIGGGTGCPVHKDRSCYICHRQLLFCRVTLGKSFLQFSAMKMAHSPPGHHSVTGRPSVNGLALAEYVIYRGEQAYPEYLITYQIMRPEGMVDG

For `CCC(O)(CC)c1ccc(-c2nc3ccc(F)cc3c(=O)[nH]2)cc1` [Compound A14, 2-[4-(1-ethyl-1-hydroxy-propyl)phenyl]-6-fluoro-3H-quinazolin-4-one], the IC50 [1] was less than 300 nM, the EC50 (tankyrase 1/2) was less than 300 nM and the IC50 (His-tagged Parp-1) was 300 to 3000 nM. For the same compound, the IC50 [2] was less than 300 nM.

For `O=c1[nH]c(-c2ccc(C3(O)CCCC3)cc2)nc2ccc(F)cc12` [Compound A16, 6-fluoro-2-[4-(1-hydroxycyclopentyl)phenyl]-3H-quinazolin-4-one], the IC50 [1] was less than 300 nM, the EC50 (tankyrase 1/2) was 300 to 3000 nM and the IC50 (His-tagged Parp-1) was 300 to 3000 nM. The IC50 [2] was less than 300 nM.

In the case of `CC(C)(O)c1ccc(-c2nc3c(F)cc(F)c(F)c3c(=O)[nH]2)cc1` [Compound A26, 5,6,8-trifluoro-2-[4-(1-hydroxy-1-methyl-ethyl)-phenyl]-3H-quinazolin-4-one], the IC50 [1] is reported as less than 300 nM, the EC50 (tankyrase 1/2) is reported as less than 300 nM and the IC50 (His-tagged Parp-1) is reported as 300 to 3000 nM. The IC50 [2] was less than 300 nM.

Compound `Cc1cc(F)cc2c(=O)[nH]c(-c3ccc(N4CCC(O)CC4)cc3)nc12` [Compound A29, 6-fluoro-2-[4-(4-hydroxy-piperidin-1-yl)-phenyl]-8-methyl-3H-quinazolin-4-one] has an IC50 [1] of less than 300 nM, an EC50 (tankyrase 1/2) of less than 300 nM and an IC50 (His-tagged Parp-1) of less than 300 nM. It also gave an IC50 [2] of less than 300 nM.

`Cc1cc(F)cc2c(=O)[nH]c(-c3ccc(N4CCC(CO)CC4)cc3)nc12` [Compound A31, 6-fluoro-2-[4-(4-hydroxymethyl-piperidin-1-yl)-phenyl]-8-methyl-3H-quinazolin-4-one] showed an IC50 [1] of less than 300 nM, an EC50 (tankyrase 1/2) of less than 300 nM and an IC50 (His-tagged Parp-1) of 300 to 3000 nM. For the same compound, the IC50 [2] was less than 300 nM.

Source: US9388142B2, “Quinazolinone derivatives as PARP inhibitors” (MERCK PATENT GMBH, priority 2012, dated 2016)
